This note sets out measurements from patent US11981677B2, “Further substituted triazolo quinoxaline derivatives” (Grünenthal GmbH, priority 2018, dated 2024).

For the experiment, the target named is T1, Glucocorticoid Receptor (Homo sapiens, UniProt P04150).
T1 construct: expressed in transfected cells
T1 sequence (P04150 524-758 limits assumed): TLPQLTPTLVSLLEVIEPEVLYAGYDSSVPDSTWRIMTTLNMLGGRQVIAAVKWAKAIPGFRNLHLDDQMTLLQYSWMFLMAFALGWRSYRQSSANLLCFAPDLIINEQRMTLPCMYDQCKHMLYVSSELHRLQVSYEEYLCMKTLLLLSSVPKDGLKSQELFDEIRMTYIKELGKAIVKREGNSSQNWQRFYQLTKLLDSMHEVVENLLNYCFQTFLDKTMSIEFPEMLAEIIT
Nature of the experiment: Agonistic mode of action on the glucocorticoid receptor (CHO-Gal4/GR luciferase reporter cell line). Format: cell-based. The settings on record: CHO-Gal4/GR luciferase reporter cells; observed in the agonistic assay or the antagonistic assay (mode not given); read-out: IC50 or EC50 range. Put shortly:
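CHO cells stably expressing GAL4 DBD–GR ligand-binding domain fusion with GAL4-UAS firefly luciferase reporter, seeded 24 h, then treated in Opti-MEM with 8 half-log concentrations from 10 μM to 0.003 μM (0.5% DMSO), quadruplicate. Luminescence read on FLIPR after lysis with Triton/luciferin; EC50 calculated.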
(In a reporter assay the amount or activity of a reporter protein is the signal.)
As for `Cc1c(-c2cccc3c2ccn3CCO)cc(F)c2c1-n1c(C)nnc1C(C)(C)N2` [Example 301, 2-[4-(6-Fluoro-1,4,4,9-tetramethyl-5H-[1,2,4]triazolo[4,3-a]quinoxalin-8-yl)-1H-indol-1-yl]-EtOH], the IC50 or EC50 (antagonist or agonist mode, not stated per compound) is 100 to 1000 nM.
With `CCS(=O)(=O)n1ccc2c(-c3c(C)c4c(c(F)c3F)NC(C)(C)c3nnc(C)n3-4)cc(F)cc21` [Example 446, 8-(1-(ethylsulfonyl)-6-fluoro-1H-indol-4-yl)-6,7-difluoro-1,4,4,9-tetramethyl-4,5-dihydro-[1,2,4]triazolo[4,3-a]quinoxaline] the figure was below 100 nM; with `COc1c(-c2cccc3c2ccn3S(=O)(=O)C2CC2)cc(F)c2c1-n1c(C)nnc1C(C)(C)N2` [Example 505, 8-[1-(Cyclopropylsulfonyl)-1H-indol-4-yl]-6-fluoro-9-methoxy-1,4,4-trimethyl-5H-[1,2,4]triazolo[4,3-a]quinoxaline], 100 to 1000 nM.
In the case of `Cc1c(-c2cc(F)cc3c(C4CC4)c[nH]c23)cc(F)c2c1-n1c(C)nnc1C(C)(C)N2` [Example 38, 8-(3-cyclopropyl-5-fluoro-1H-indol-7-yl)-6-fluoro-1,4,4,9-tetramethyl-4,5-dihydro-1-[1,2,4]triazolo[4,3-a]quinoxaline], the IC50 or EC50 (antagonist or agonist mode, not stated per compound) was below 100 nM.
With `Cc1nnc2n1-c1c(c(F)cc(-c3cccc4c3ccn4S(C)(=O)=O)c1C(F)F)NC2(C)C` [Example 459, 9-(Difluoro-methyl)-6-fluoro-1,4,4-trimethyl-8-(1-methylsulfonyl-1H-indol-4-yl)-5H-[1,2,4]triazolo[4,3-a]quinoxaline] the figure was below 100 nM; with `Cc1c(-c2cc(F)cc3[nH]ccc23)cc(F)c2c1-n1c(C)nnc1C(C)(C)N2` [Example 465, 6-fluoro-8-(6-fluoro-1H-indol-4-yl)-1,4,4,9-tetramethyl-4,5-dihydro-[1,2,4]triazolo[4,3-a]quinoxaline], below 100 nM; with `Cc1c[nH]c2c(-c3cc(F)c4c(c3C3CC3)-n3c(C)nnc3C(C)(C)N4)cccc12` [Example 472, 9-Cyclopropyl-6-fluoro-1,4,4-trimethyl-8-(3-methyl-1H-indol-7-yl)-5H-[1,2,4]triazolo[4,3-a]quinoxaline], 100 to 1000 nM.
With `Cc1c(-c2cccc3c2cnn3S(C)(=O)=O)cc(F)c2c1-n1c(C)nnc1C(C)(C)N2` [Example 378, 6-Fluoro-1,4,4,9-tetramethyl-8-(1-methylsulfonyl-1H-indazol-4-yl)-5H-[1,2,4]triazolo[4,3-a]quinoxaline] the figure was 1000 to 15000 nM.
For `CCS(=O)(=O)n1ccc2c(-c3cc(F)c4c(c3C)-n3c(C)nnc3C(C)(C)N4)cccc21` [Example 350, 8-[1-(Ethylsulfonyl)-1H-indol-4-yl]-6-fluoro-1,4,4,9-tetramethyl-5H-[1,2,4]triazolo[4,3-a]quinoxaline], the IC50 or EC50 (antagonist or agonist mode, not stated per compound) is below 100 nM.
With `CCc1c(-c2cc(F)cc3c2cnn3S(C)(=O)=O)cc(F)c2c1-n1c(C)nnc1C(C)(C)N2` [Example 53, 9-Ethyl-6-fluoro-8-(6-fluoro-1-methylsulfonyl-1H-indazol-4-yl)-1,4,4-trimethyl-5H-[1,2,4]triazolo[4,3-a]quinoxaline] the figure was 100 to 1000 nM; with `Cc1c(-c2cc(F)cc3c2ccn3C)c(F)c(F)c2c1-n1c(C)nnc1C(C)(C)N2` [Example 521, 6,7-Difluoro-8-(6-fluoro-1-methyl-1H-indol-4-yl)-1,4,4,9-tetramethyl-5H-[1,2,4]triazolo[4,3-a]quinoxaline], below 100 nM.
With `Cc1c(-c2cccc3c2ccn3C2CC2)cc(F)c2c1-n1c(C)nnc1C(C)(C)N2` [Example 305, 8-(1-Cyclopropyl-1H-indol-4-yl)-6-fluoro-1,4,4,9-tetramethyl-5H-[1,2,4]triazolo[4,3-a]quinoxaline], the IC50 or EC50 (antagonist or agonist mode, not stated per compound) is below 100 nM.
With `Cc1c(-c2cccc3[nH]ccc23)cc(F)c2c1-n1c(C)nnc1C(C)(C)N2` [Example 468, 6-Fluoro-8-(1H-indol-4-yl)-1,4,4,9-tetramethyl-5H-[1,2,4]triazolo[4,3-a]quinoxaline] the figure was below 100 nM; with `Cc1c(-c2cccc3c2ccn3S(=O)(=O)CF)cc(F)c2c1-n1c(C)nnc1C(C)(C)N2` [Example 349, 6-Fluoro-8-[1-(fluoro-methylsulfonyl)-1H-indol-4-yl]-1,4,4,9-tetramethyl-5H-[1,2,4]triazolo[4,3-a]quinoxaline], 100 to 1000 nM; with `CNc1c(-c2cc(F)cc3c(C)c[nH]c23)cc(F)c2c1-n1c(C)nnc1C(C)(C)N2` [Example 487, [6-Fluoro-8-(5-fluoro-3-methyl-1H-indol-7-yl)-1,4,4-trimethyl-5H-[1,2,4]triazolo[4,3-a]quinoxalin-9-yl]-methyl-amine], below 100 nM.
With `COc1c(-c2cc(F)cc3c(C4CC4)c[nH]c23)cc(F)c2c1-n1c(C)nnc1C(C)(C)N2` [Example 478, 8-(3-Cyclopropyl-5-fluoro-1H-indol-7-yl)-6-fluoro-9-methoxy-1,4,4-trimethyl-5H-[1,2,4]triazolo[4,3-a]quinoxaline] the figure was below 100 nM.
